Experiments:
[1] = Photostability: amount of MK-7 on exposure to the light from a fluorescent lamp; assay type: physicochemical; settings: room temperature
Experimental: This dry MK-7 was exposed to the light from a fluorescent lamp at room temperature for 5 hours. In this case, the amount of MK-7 was measured along the course of time in the same manner as in Example 6. The results are shown in FIG. 7 (indicated by empty circle (◯) marks).
The fat-soluble MK-7 thus prepared was dried to obtain a dry product of MK-7. This dry product of MK-7 was irradiated with the light from a fluorescent lamp at room temperature for 5 hours and then tested for the fat-soluble MK-7 content in the same manner as in Example 6. The results are shown in FIG. 7 (indicated by filled square (▪) marks).

[2] = MK-7 level in plasma after oral ingestion by healthy adults (HPLC); assay type: in vivo, human (healthy adults)
Experimental: The measurement of the amounts of MK-7, MK-4, and vitamin K1 by the high-performance liquid chromatography (HPLC) makes use of the phenomenon that vitamin K is reduced by a platinum-alumina catalyst into a hydroquinone compound and made to form a fluorescent substance. To be more specific, this measurement is carried out under the following conditions.
Then, five healthy adults were each caused to ingest 1 g of the dry cells at 10 o'clock every morning. After the elapse of a prescribed interval, blood was collected from each of the healthy adults and was tested for MK-7 level in the plasma. The time-course changes of MK-7 level in the plasma were investigated.
Five healthy adults were each caused to ingest 1 g of dry cells (containing 1.8×10^10 live cells) of Nitto strain (made by Nitto Yakuhin Kogyo K.K. in Kyoto) at 10 o'clock every morning. Then, blood was collected from the adults along the course of time. The plasma was separated from the collected blood and tested for MK-7 level in the plasma in the same manner as in Example 1.
As a control, five healthy adults were caused to ingest purified MK-7 in place of the dry cells of Bacillus subtilis natto mentioned above. The plasma similarly obtained from each of the healthy adults was tested for MK-7 level in the plasma.
The cultured product thus obtained was washed with distilled water and then freeze-dried. Five healthy adults (A to E) were each caused to ingest an enteric capsule in which 1 g of freeze-dried product (containing 5×10^11 cells/g of dried product) was filled. In this case, the MK-7 content was determined by the Soxhlet-HPLC method method, to find to be 708.0 μg/g of dried product. At prescribed points, blood was collected from the adults along the course of time. The plasma MK-7 level was tested in the same manner as in Example 1.
Five healthy adults (21 to 63 years old, male) requested to abstain from breakfast were each made to ingest 1,000 μg of the water-soluble vitamin K derivative containing the water-soluble MK-7 derivative prepared in Example 9 at 10 o'clock in the morning. Blood was collected from the healthy adults along the course of time after the ingestion and measured for the level of the water-soluble MK-7 derivative in plasma. As a control, the experiment was repeated with the ingestion of 1,000 μg of purified MK-7 instead.

[3] = oral, 1 g dry cells (about 1.8 × 10^10 cells/g) or about 51.0 μg purified MK-7, average ± SD, n = 5

Exposure time to the fluorescent lamp after which the amount of MK-7 could not be measured [1] | Level in plasma on the 24th hour after the ingestion ([2]; Example 14, oral 1,000 μg) [ng/mL] | Concentration of MK-7 in plasma (after the elapse of) 0 hour ([2]; before ingestion, oral, 1 g dry cells (about 1.8 × 10^10 cells/g) or about 51.0 μg purified MK-7, average ± standard deviation, n = 5) | Concentration of MK-7 in plasma (after the elapse of) 4 hours [2, 3] | Concentration of MK-7 in plasma (after the elapse of) 8 hours [2, 3] | Concentration of MK-7 in plasma (after the elapse of) 12 hours [2, 3] | Concentration of MK-7 in plasma (after the elapse of) 24 hours [2, 3] | Concentration of MK-7 in plasma (after the elapse of) 32 hours [2, 3] | Concentration of MK-7 in plasma (after the elapse of) 48 hours [2, 3] | Compound
about 3 hours |  |  |  |  |  |  |  |  | CC(C)=CCC/C(C)=C/CC/C(C)=C/CC/C(C)=C/CC/C(C)=C/CC/C(C)=C/CC/C(C)=C/CC1=C(C)C(=O)c2ccccc2C1=O [fat-soluble MK-7]
 | 3.2 ± 2.3 | 1.3 ± 1.1 | 11.2 ± 2.8 | 7.3 ± 1.6 | 4.3 ± 1.0 | 2.2 ± 1.0 | 1.4 ± 0.7 ^┘ | 1.4 ± 0.9 ^┘ | CC(C)=CCC/C(C)=C/CC/C(C)=C/CC/C(C)=C/CC/C(C)=C/CC/C(C)=C/CC/C(C)=C/CC1=C(C)C(=O)c2ccccc2C1=O [Purified MK-7, menaquinone-7]
